Experiments:
[1] = target: T1, Brd4 bromodomain 1 (BRD4(1)) (Homo sapiens, UniProt O60885); test: Inhibition of tetra-acetylated histone H4 binding to BET bromodomains (TR-FRET); parameters: key: Active: Compounds with an IC50 value less than 30 μM were deemed to be active.; Not Active: Compounds with an IC50 value less than 30 μM were deemed to be active; settings: first bromodomain of Brd4, tetra-acetylated histone H4 peptide
T1 construct: made in house; host or cells: E. coli BL21(DE3)
Procedure: Proteins were cloned and overexpressed with a N-terminal 6×His tag, then purified by nickel affinity followed by size exclusion chromatography. Briefly, E. coli BL21(DE3) cells were transformed with a recombinant expression vector encoding N-terminally Nickel affinity tagged bromodomains from Brd2, Brd3, Brd4. Cell cultures were incubated at 37° C. with shaking to the appropriate density and induced overnight with IPTG. The supernatant of lysed cells was loaded onto Ni-IDA column for purification. Eluted protein is pooled, concentrated and further purified by size exclusion chromatography. Fractions representing monomeric protein were pooled, concentrated, aliquoted, and frozen at −80° C. for use in subsequent experiments.
Binding of tetra-acetylated histone H4 and BET bromodomains was confirmed by a Time Resolved Fluorescence Resonance Energy Transfer (TR-FRET) method. N-terminally His-tagged bromodomains (200 nM) and biotinylated tetra-acetylated histone H4 peptide (25-50 nM, Millipore) were incubated in the presence of Europium Cryptate-labeled streptavidin (Cisbio Cat. #610SAKLB) and XL665-labeled monoclonal anti-His antibody (Cisbio Cat. #61HISXLB) in a white 96 well microtiter plate (Greiner). For inhibition assays, serially diluted test compound was added to these reactions in a 0.2% final concentration of DMSO. Final buffer concentrations were 30 mM HEPES pH 7.4, 30 mM NaCl, 0.3 mM CHAPS, 20 mM phosphate pH 7.0, 320 mM KF, 0.08% BSA). After a 2-h incubation at room temperature, the fluorescence by FRET was measured at 665 and 620 nm by a SynergyH4 plate reader (Biotek). The binding inhibitory activity was shown by a decrease in 665 nm fluorescence relative to 620 nm. IC50 values were determined from a dose response curve.

human AML MV-4-11 cells = test: Inhibition of cell proliferation in cancer cell lines (CellTiter Aqueous One); type: cell-based; parameters: key: Active: Compounds with an IC50 value less than 30 μM were deemed to be active.; Not Active: Compounds with an IC50 value less than 30 μM were deemed to be active; settings: 72 h
Procedure: MV4-11 cells: 96-well plates were seeded with 5×10^4 cells per well of exponentially growing human AML MV-4-11 (CRL-9591) cells and immediately treated with two-fold dilutions of test compounds, ranging from 30 μM to 0.2 μM. Triplicate wells were used for each concentration, as well as a media only and three DMSO control wells. The cells and compounds were incubated at 37° C., 5% CO2 for 72 h before adding 20 μL of the CellTiter Aqueous One Solution (Promega) to each well and incubating at 37° C., 5% CO2 for an additional 3-4 h. The absorbance was taken at 490 nm in a spectrophotometer and the percentage of proliferation relative to DMSO-treated cells was calculated after correction from the blank well. IC50 were calculated using the GraphPad Prism software.

Structure (SMILES) | melting point | FRET activity BRD4(1) [1] | Cell Proliferation activity (IC50 < 30 μM) (human AML MV-4-11 cells)
COc1ccc(-c2nc3cc(OC)cc(OC)c3c(=O)[nH]2)c(NCCCN2CCOCC2)c1 [Example 13, 5,7-Dimethoxy-2-(4-methoxy-2-((3-morpholinopropyl)amino)-phenyl)quinazolin-4(3H)-one] | 234 to 235 °C | Active | –
COc1ccc(-c2nc3cc(OC)cc(OC)c3c(=O)[nH]2)c(NCCN2CCCCC2)c1 [Example 12, 5,7-Dimethoxy-2-(4-methoxy-2-((2-(piperidin-1-yl)ethyl)amino)-phenyl)quinazolin-4(3H)-one] | 231 to 232 °C | Active | –
COc1cnc(-c2nc3cc(OC)cc(OC)c3c(=O)[nH]2)c(N[C@H]2CC[C@@H](NC(=O)C(C)C)CC2)c1 [Example 38, N-(cis-4-((2-(5,7-Dimethoxy-4-oxo-3,4-dihydroquinazolin-2-yl)-5-methoxypyridin-3-yl)amino)cyclohexyl)isobutyramide] | 285 °C (dec.) | – | –
COc1ccc(-c2nc3cc(OC)cc(OC)c3c(=O)[nH]2)c(C(=O)N2CCN(C)CC2)c1 [Example 2, 5,7-Dimethoxy-2-(4-methoxy-2-(4-methylpiperazine-1-carbonyl)phenyl) quinazolin-4(3H)-one] | – | Active | –
COc1cc(OC)c2c(=O)[nH]c(-c3ncccc3NCCCNC(C)C)nc2c1 [Example 43, 2-(3-((3-(Isopropylamino)propyl)amino)pyridin-2-yl)-5,7-dimethoxyquinazolin-4(3H)-one] | 121 to 122 °C | Active | –
COc1ccc(-c2nc3cc(OC)cc(OC)c3c(=O)[nH]2)c(NCC2CCN(C)CC2)c1 [Example 6, 5,7-Dimethoxy-2-(4-methoxy-2-(((1-methylpiperidin-4-yl)methyl)amino)phenyl) quinazolin-4(3H)-one] | 264 to 265 °C | Active | –
COc1cc(OC)c2c(=O)[nH]c(-c3ncccc3NCCN3CCOCC3)nc2c1 [Example 49, 5,7-Dimethoxy-2-(3-((2-morpholinoethyl)amino)pyridine-2-yl)quinazolin-4(3H)-one] | 168 to 170 °C | Active | –
COc1ccc(-c2nc3cc(OC)cc(OC)c3c(=O)[nH]2)c(NCCN2CCNCC2)c1 [Example 24, 5,7-Dimethoxy-2-(4-methoxy-2-((2-(piperazin-1-yl)ethyl)amino)phenyl)quinazolin-4(3H)-one] | 210 to 212 °C | Active | –
COc1ccc(-c2nc3cc(OC)cc(OC)c3c(=O)[nH]2)c(N(C)C2CCN(C)CC2)c1 [Example 5, 5,7-Dimethoxy-2-(4-methoxy-2-(methyl(1-methylpiperidin-4-yl)amino)phenyl) quinazolin-4(3H)-one] | 217 to 218 °C | – | –
COc1ccc(-c2nc3cc(OC)cc(OC)c3c(=O)[nH]2)c(NC2CCC(C)(C)CC2)c1 [Example 29, 2-(2-((4,4-Dimethylcyclohexyl)amino)-4-methoxyphenyl)-5,7-dimethoxyquinazolin-4(3H)-one] | – | Active | –
COc1ccc(-c2nc3cc(OC)cc(OC)c3c(=O)[nH]2)c(NC2CCN(C)C2)c1 (stereo not drawn) [Example 4, 5,7-Dimethoxy-2-(4-methoxy-2-((1-methylpyrrolidin-3-yl)amino)phenyl)quinazolin-4(3H)-one] | 214 to 215 °C | Active | –
COc1ccc(-c2nc3cc(OC)cc(OC)c3c(=O)[nH]2)c(NCCN2CCCC2)c1 [Example 11, 5,7-Dimethoxy-2-(4-methoxy-2-((2-(pyrrolidin-1-yl)ethyl)amino)phenyl)quinazolin-4(3H)-one] | 226 to 228 °C | Active | –
COc1ccc(-c2nc3cc(OC)cc(OC)c3c(=O)[nH]2)c(NC2CCN(Cc3ccccc3)CC2)c1 [Example 35, 2-(2-((1-Benzylpiperidin-4-yl)amino)-4-methoxyphenyl)-5,7-dimethoxyquinazolin-4(3H)-one] | – | Active | –

Results, then the compound that gave them:

melting point | FRET activity BRD4(1) [1] | Cell Proliferation activity (IC50 < 30 μM) (human AML MV-4-11 cells) | Structure (SMILES)
237 to 238 °C | Active | – | COc1cncc2nc(-c3ncccc3NC3CCN(C(C)C)CC3)[nH]c(=O)c12 [Example 58, 2-(3-((1-Isopropylpiperidin-4-yl)amino)pyridin-2-yl)-5-methoxypyrido[3,4-d]pyrimidin-4(3H)-one]
207 to 208 °C | Active | Active | COc1cnc(-c2nc3cc(OC)cc(OC)c3c(=O)[nH]2)c(NC2CCN(C(C)C)CC2)c1 [Example 30, 2-(3-((1-Isopropylpiperidin-4-yl)amino)-5-methoxypyridin-2-yl)-5,7-dimethoxyquinazolin-4(3H)-one]
– | Active | – | COc1cc(OC)c2c(=O)[nH]c(-c3cccc(NC4CCN(C(C)C)CC4)c3)nc2c1 [Example 27, 2-(3-((1-Isopropylpiperidin-4-yl)amino)phenyl)-5,7-dimethoxyquinazolin-4(3H)-one]
265 to 266 °C | Active | – | COc1cc(OC)c2c(=O)[nH]c(-c3ncccc3NC3CCN(C(N)=O)CC3)nc2c1 [Example 54, 4-((2-(5,7-Dimethoxy-4-oxo-3,4-dihydroquinazolin-2-yl)pyridin-3-yl)amino)piperidine-1-carboxamide]
265 °C (dec.) | – | – | COc1cc(OC)c2c(=O)[nH]c(-c3ccc(Cl)cc3NC3CCN(C(C)C)CC3)nc2c1 [Example 33, 2-(4-Chloro-2-((1-isopropylpiperidin-4-yl)amino)phenyl)-5,7-dimethoxyquinazolin-4(3H)-one]
– | Active | – | COc1cc(N)cc2nc(-c3ncccc3NC3CCN(C(C)C)CC3)[nH]c(=O)c12 [Example 65, 7-amino-2-(3-((1-Isopropylpiperidin-4-yl)amino)pyridin-2-yl)-5-methoxyquinazolin-4(3H)-one]
281 to 283 °C | Active | – | COc1cc(OC)c2c(=O)[nH]c(-c3ccc(Cl)cc3NC3CCN(C(=O)C(C)C)CC3)nc2c1 [Example 34, 2-(4-Chloro-2-((1-isobutyrylpiperidin-4-yl)amino)phenyl)-5,7-dimethoxyquinazolin-4(3H)-one]
191 to 193 °C | Active | – | COc1cnc(-c2nc3cc(OC)cc(OC)c3c(=O)[nH]2)c(NC2CCN(C)CC2)c1 [Example 40, 5,7-Dimethoxy-2-(5-methoxy-3-((1-methylpiperidin-4-yl)amino)pyridin-2-yl)quinazolin-4(3H)-one]
186 to 188 °C | Active | – | COc1cc(OC)c2c(=O)[nH]c(-c3ncccc3NC3CCN(C)CC3)nc2c1 [Example 44, 5,7-Dimethoxy-2-(3-((1-methylpiperidin-4-yl)amino)pyridine-2-yl)quinazolin-4(3H)-one]
157 to 159 °C | Active | – | COc1cc(OC)c2c(=O)[nH]c(-c3ncccc3NCC3CCN(C)C3)nc2c1 (stereo not drawn) [Example 41, 5,7-Dimethoxy-2-(3-(((1-methylpyrrolidin-3-yl)methyl)amino)pyridin-2-yl)quinazolin-4(3H)-one]
223 to 225 °C | Active | – | COc1cc(OC)c2c(=O)[nH]c(-c3ncccc3NC3CCN(C(C)(C)CO)CC3)nc2c1 [Example 68, 2-(3-((1-(1-Hydroxy-2-methylpropan-2-yl)piperidin-4-yl)amino)pyridin-2-yl)-5,7-dimethoxyquinazolin-4(3H)-one]
267 to 269 °C | Active | – | COc1cc(OC)c2c(=O)[nH]c(-c3ccccc3NC3CCN(C(C)C)CC3)nc2c1 [Example 10, 2-(2-((1-Isopropylpiperidin-4-yl)amino)phenyl)-5,7-dimethoxyquinazolin-4(3H)-one]
276 to 278 °C | Active | – | COc1cc(OC)c2c(=O)[nH]c(-c3ncccc3N[C@H]3CC[C@@H](C(=O)N(C)C)CC3)nc2c1 [Example 53, cis-4-((2-(5,7-Dimethoxy-4-oxo-3,4-dihydroquinazolin-2-yl)pyridin-3-yl)amino)-N,N-dimethylcyclohexane-1-carboxamide]

— US10500209B2, “Quinazolinones as bromodomain inhibitors” (Zenith Epigenetics Ltd., priority 2013, dated 2019)
